What was measured:
Format in all cases: cell-based
[1] = target: T1, M1 muscarinic receptor (Homo sapiens, UniProt P11229); assay: Functional mobilization of intracellular calcium (FLIPR), M1-CHO cells; conditions: for M1 Activity: M1-CHO cells, calcium mobilization (FLIPR)
T1 construct: expressed in transfected cells; host or cells: CHO (M1-CHO)
T1 sequence (P11229 1-460): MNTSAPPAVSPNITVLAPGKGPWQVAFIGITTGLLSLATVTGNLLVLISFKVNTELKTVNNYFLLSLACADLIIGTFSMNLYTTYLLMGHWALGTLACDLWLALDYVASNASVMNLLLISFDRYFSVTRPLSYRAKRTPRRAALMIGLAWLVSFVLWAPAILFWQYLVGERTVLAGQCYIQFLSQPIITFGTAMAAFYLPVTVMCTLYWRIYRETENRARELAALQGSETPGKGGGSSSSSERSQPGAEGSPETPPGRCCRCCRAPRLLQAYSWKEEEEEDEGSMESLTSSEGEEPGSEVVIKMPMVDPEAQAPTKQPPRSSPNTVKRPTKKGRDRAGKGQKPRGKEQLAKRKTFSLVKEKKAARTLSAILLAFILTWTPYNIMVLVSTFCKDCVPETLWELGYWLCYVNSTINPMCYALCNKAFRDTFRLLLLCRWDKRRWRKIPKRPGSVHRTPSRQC
Method in brief: (§1)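 Calcium mobilisation read by FLIPR over 60 s (ex 488/em 540 nm) in recombinant muscarinic CHO lines loaded with calcium dye plus 1 mM probenecid. Compounds tested as agonists alone, or as inhibitors against EC80 carbachol after 15 min pre-incubation or co-addition; 0.5% DMSO; efficacy scaled to carbachol maximal response.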

[2] = target: T2, M2 muscarinic receptor (Homo sapiens, UniProt P08172); assay: Functional mobilization of intracellular calcium (FLIPR), M2-CHO cells; conditions: for M2 Activity: M2-CHO cells, calcium mobilization (FLIPR)
T2 construct: expressed in transfected cells; host or cells: CHO (M2-CHO)
T2 sequence (P08172 1-466): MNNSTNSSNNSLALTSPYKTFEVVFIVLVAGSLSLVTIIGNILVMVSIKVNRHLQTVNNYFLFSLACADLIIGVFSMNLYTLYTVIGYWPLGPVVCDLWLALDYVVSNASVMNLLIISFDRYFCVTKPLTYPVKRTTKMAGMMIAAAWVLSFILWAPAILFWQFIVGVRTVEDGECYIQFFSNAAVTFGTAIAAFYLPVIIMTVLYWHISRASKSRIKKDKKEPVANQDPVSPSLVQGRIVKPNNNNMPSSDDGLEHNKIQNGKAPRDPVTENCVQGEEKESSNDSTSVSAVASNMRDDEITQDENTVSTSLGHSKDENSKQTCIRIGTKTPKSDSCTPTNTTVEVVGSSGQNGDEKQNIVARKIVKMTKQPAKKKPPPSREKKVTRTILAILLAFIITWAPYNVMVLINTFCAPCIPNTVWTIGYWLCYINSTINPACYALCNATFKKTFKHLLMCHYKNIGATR
Method in brief: as §1

[3] = target: T3, M3 muscarinic receptor (Homo sapiens, UniProt P20309); assay: Functional mobilization of intracellular calcium (FLIPR), M3-CHO cells; conditions: for M3 Activity: M3-CHO cells, calcium mobilization (FLIPR)
T3 construct: expressed in transfected cells; host or cells: CHO (M3-CHO)
Method in brief: as §1

[4] = target: T4, M4 muscarinic receptor (Homo sapiens, UniProt P08173); assay: Functional mobilization of intracellular calcium (FLIPR), M4-CHO cells; conditions: for M4 Activity: M4-CHO cells, calcium mobilization (FLIPR)
T4 construct: expressed in transfected cells; host or cells: CHO (M4-CHO)
T4 sequence (P08173 1-479): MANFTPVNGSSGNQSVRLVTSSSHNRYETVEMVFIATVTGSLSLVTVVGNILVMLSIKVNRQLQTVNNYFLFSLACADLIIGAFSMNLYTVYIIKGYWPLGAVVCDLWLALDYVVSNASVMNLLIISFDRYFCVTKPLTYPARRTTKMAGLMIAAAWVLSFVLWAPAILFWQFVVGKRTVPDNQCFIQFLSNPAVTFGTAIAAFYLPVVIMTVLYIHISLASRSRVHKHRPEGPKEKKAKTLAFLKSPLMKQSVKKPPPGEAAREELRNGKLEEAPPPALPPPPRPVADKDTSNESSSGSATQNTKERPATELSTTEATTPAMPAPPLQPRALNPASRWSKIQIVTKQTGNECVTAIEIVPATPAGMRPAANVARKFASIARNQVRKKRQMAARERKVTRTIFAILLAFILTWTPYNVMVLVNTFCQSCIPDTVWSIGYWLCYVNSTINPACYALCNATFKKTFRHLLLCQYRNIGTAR
Method in brief: as §1

[5] = 100% efficacy is the maximum response obtained with the Carbachol control

T3 sequence (P20309 whole entry): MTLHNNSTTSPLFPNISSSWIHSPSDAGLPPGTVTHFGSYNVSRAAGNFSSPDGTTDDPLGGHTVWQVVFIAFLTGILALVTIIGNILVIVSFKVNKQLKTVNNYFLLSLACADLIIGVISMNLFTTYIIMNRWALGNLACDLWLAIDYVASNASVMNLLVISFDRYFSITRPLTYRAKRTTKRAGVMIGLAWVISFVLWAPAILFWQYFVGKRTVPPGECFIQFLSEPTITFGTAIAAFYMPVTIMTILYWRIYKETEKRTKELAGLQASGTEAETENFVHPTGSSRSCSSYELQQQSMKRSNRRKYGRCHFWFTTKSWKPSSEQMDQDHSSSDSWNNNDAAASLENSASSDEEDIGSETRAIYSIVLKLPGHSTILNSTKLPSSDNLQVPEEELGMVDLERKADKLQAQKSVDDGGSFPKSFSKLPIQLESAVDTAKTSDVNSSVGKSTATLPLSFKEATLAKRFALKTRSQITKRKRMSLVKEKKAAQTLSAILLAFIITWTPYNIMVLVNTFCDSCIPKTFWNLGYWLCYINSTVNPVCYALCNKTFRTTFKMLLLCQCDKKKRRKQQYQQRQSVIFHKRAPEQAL

Compound | Emax [1, 5] [%] | M1 Activity [1] | Emax [2, 5] [%] | M2 Activity [2] | Emax [3, 5] [%] | M3 Activity [3] | Emax [4, 5] [%] | M4 Activity [4] | M1 Efficacy [1, 5] | M2 Efficacy [2, 5] | M3 Efficacy [3, 5] | M4 Efficacy [4, 5]
CCOC(=O)N1C2CCC1CC(N1CCC(OC)(c3cc(Cl)ccc3OC)CC1)C2 (centres unmarked) [Compound 390] | 25 to 100 | +++ (activity was measured to be less than 1.0 μM) | < 25 | + (activity was measured to be greater than 5.0 μM) | < 25 | + (activity was measured to be greater than 5.0 μM) | 25 to 100 | +++ (activity was measured to be less than 1.0 μM) | – | – | – | –
O=C(NCc1cccc(C2CCN(C3C[C@H]4CC[C@H]3C4)CC2)c1)C1CC1 (some centres unmarked) [Compound 391] | < 25 | + (activity was measured to be greater than 5.0 μM) | < 25 | + (activity was measured to be greater than 5.0 μM) | < 25 | + (activity was measured to be greater than 5.0 μM) | < 25 | + (activity was measured to be greater than 5.0 μM) | – | – | – | –
CCOC(=O)N1CCC(N2CCC(c3cc(Cl)ccc3OC)CC2)CC1 [Compound 392] | 25 to 100 | +++ (activity was measured to be less than 1.0 μM) | 25 to 100 | +++ (activity was measured to be less than 1.0 μM) | 25 to 100 | +++ (activity was measured to be less than 1.0 μM) | 25 to 100 | +++ (activity was measured to be less than 1.0 μM) | – | – | – | –
COc1ccc(-c2ccc(OC)c(C3CCN([C@@H]4C[C@H]5CC[C@H]4C5)CC3)c2)cc1 [Compound 393] | < 25 | + (activity was measured to be greater than 5.0 μM) | < 25 | + (activity was measured to be greater than 5.0 μM) | < 25 | + (activity was measured to be greater than 5.0 μM) | 25 to 100 | + (activity was measured to be greater than 5.0 μM) | – | – | – | –
COc1ccc(Cl)cc1C1(O)CCN(C[C@H]2C[C@H]3C=C[C@H]2C3)CC1 [Compound 394] | < 25 | + (activity was measured to be greater than 5.0 μM) | 25 to 100 | + (activity was measured to be greater than 5.0 μM) | < 25 | + (activity was measured to be greater than 5.0 μM) | 25 to 100 | +++ (activity was measured to be less than 1.0 μM) | – | – | – | –
Clc1cccc(-c2ccccc2C2CCN([C@H]3C[C@H]4CC[C@H]3C4)CC2)c1 [Compound 395] | < 25 | + (activity was measured to be greater than 5.0 μM) | < 25 | + (activity was measured to be greater than 5.0 μM) | < 25 | + (activity was measured to be greater than 5.0 μM) | 25 to 100 | + (activity was measured to be greater than 5.0 μM) | – | – | – | –
COc1ccc(Cl)cc1C1CCN(C2CCC(=NOCc3ccccc3)CC2)CC1 (centres unmarked) [Compound 396] | – | + (activity was measured to be greater than 5.0 μM) | – | + (activity was measured to be greater than 5.0 μM) | – | + (activity was measured to be greater than 5.0 μM) | – | +++ (activity was measured to be less than 1.0 μM) | ++ (efficacy was calculated to be from 100% to 25%) | + (efficacy was calculated to be less than 25%) | + (efficacy was calculated to be less than 25%) | ++ (efficacy was calculated to be from 100% to 25%)

Reference: patent US7880007B2, “Bicyclic substituted phenyl piperidine modulators of muscarinic receptors” (Vertex Pharmaceuticals Incorporated, priority 2004, dated 2011)
